Measured values: patent publication US11760984B2, “CRISPR protein inhibitors” (THE BROAD INSTITUTE, INC., priority 2017, dated 2023)
Values after ≈ are worked out from the molar mass of the structure shown. “Also recorded” adds a separate entry of the source.

What was measured:
SpCas9 = SpCas9 (Streptococcus pyogenes serotype M1, UniProt Q99ZW2); experiment: mCherry-GFP NHEJ assay; assay type: cell-based; conditions: HEK293T cells; 2-10 μM; 24 h
Procedure: NHEJ assay. Approximately 8,000 cells/well were plated in a 96-well format 24 h before transiently transfected with a total 100 ng of DN66 (mCherry-TAG-GFP reporter) and DN78 (SpCas9 and gRNA) plasmids (1:1) using lipofectamine 2000 (Life Technologies) 3. Transfected cells were allowed to grow in the indicated amount of compound or DMSO for 24 h. Cells were then fixed using 4% paraformaldehyde and imaged with the HCS NuclearMask™ Blue Stain (Life Technologies) as the nuclear counter-staining agent. Imaging was performed with an IXM 137204 ImageXpress Automated High Content Microscope (Molecular Devices) at 20× magnification under three excitation channels (blue, green and red) with 9 acquiring sites per well. Images were analyzed in the MetaXpress software to determine the % NHEJ and the data were plotted using GraphPad Prism 6. The Z′-value was calculated following the formula: […]

[1] = Solubility in PBS determined by mass spectroscopy; assay type: physicochemical; conditions: aqueous buffer, 24 h incubation at room temperature, read-out: solubility: no detectable aggregation up to
Procedure: FIG. 15—The solubility of BRD7087 compound in PBS as determined by mass spectroscopy after 24 h of incubation at room temperature. Compounds Antipyrine and Clotrimazole were used as positive controls.
FIG. 59. The solubility of BRD7087 compound in PBS as determined by Mass spectroscopy after 24 h of incubation at room temperature. Compounds Antipyrine and Clotrimazole have been used as the positive controls.

dCas9 = experiment: dCas9-based transcriptional activation of HBG1 gene in HEK293FT cells (RT-qPCR); assay type: cell-based; conditions: for inhibition of HBG1 transcriptional activation: HEK293FT cells, 48 hours
Procedure: Transcription activation experiments and quantitative RT-PCR analyses. For transcription activation experiments 250,000 cells/well were plated in a 12 well plate. The cells were transiently transfected with a 1:1:1 mass ratio of the dCas9 plasmid, MS2-P65-HSF1 effector plasmid and the sgRNA plasmid targeting the HBG1 gene or an RFP control plasmid. A total of 1.6 μg plasmid DNA was transfected using Lipofectamine 2000 (Life Technologies) according to manufacturer's protocol. Immediately after transfection, the cells were treated with an appropriate dose of the small molecule inhibitors for 48 hours following which the cells were harvested and RNA was extracted using the EZNA Total RNA kit I (Omega) as per manufacturer's instructions. 1 μg total cellular RNA was used to perform reverse transcription using the High-Capacity cDNA Reverse Transcription Kit (Applied Biosystems) or the qScript cDNA Synthesis Kit (QuantaBio). qPCR reactions were performed to quantify RNA expression using the TaqMan probes (Life Technologies, HBG1/HBG2: Hs00361131_g1 and ACTB: Hs01060665_g1) and TaqMan Fast Advanced Master Mix (Life Technologies) in 5 μL multiplexed reactions and 384-well format using the LightCycler 480 Instrument II (Roche). For each sample, six technical replicates were performed. Data were analyzed using the LightCycler 480 software (Roche) by the ΔΔCt method: Ct values for the gene of interest (HBG1) were normalized to Ct values for the housekeeping gene (ACTB) and fold-changes in the expression level of the gene of interest were normalized to RFP-transfected control. The data are reported as mean±S.E.M. for technical replicates.
For transcription activation experiments 250,000 cells/well were plated in a 12 well plate. […] Data were analyzed using the LightCycler 480 software (Roche) by the ΔΔCt method: Ct values for the gene of interest (HBG1) were normalized to Ct values for the housekeeping gene (ACTB) and fold-changes in the expression level of the gene of interest were normalized to RFP-transfected control. […]

S. aureus RN4220 strain = experiment: Bacterial resistance study against phage (CRISPR-immunity, OD600 growth curves); assay type: cell-based; conditions: 5-20 μM; for blockage of CRISPR-immunity: sensitization of immune bacterial cells to phage: OD600 over 16 hours, phage MOI 1
Procedure: (§1) Bacterial study. Plasmid pRH248 harboring SpCas9, tracrRNA and a single-spacer array ([…]) (SEQ ID 13) No. targeting phage (DNM474 was constructed via BsaI cloning onto pDB114 as described in Heler et al 6. Plate reader growth curves of bacteria infected with phage were conducted as described previously with minor modifications 7. Overnight cultures were diluted 1:100 into 2 ml of fresh BHI supplemented with appropriate antibiotics and 5 mM CaCl2) and grown to an OD600 of ˜0.2. Immune cells carrying pRH248 were diluted with cells lacking CRISPR-Cas in a 1:10,000 ratio. Following a 15-minute pre-incubation with DMSO or with varying amounts of inhibitors (5-20 μM), the cultures were infected with <DNM474 at an initial MOI of 1. To produce plate reader growth curves, 200 μL of infected cultures, normalized for OD600, were transferred to a 96-well plate in triplicate. OD600 measurements were collected every 10 minutes for 16 hours. Similarly, growth curves to evaluate the toxicity of the compounds at 20 μM (FIG. 32) were conducted on cultures lacking CRISPR in the absence of phage.
as §1, with “NO:38)” for “13) No.”, “DNM474” for “(DNM474”, “al^6.” for “al 6.”, “modifications^7.” for “modifications 7.”, “DNM474” for “<DNM474”, “Similarly, growth curves to evaluate the toxicity of the compounds at 20 μM (FIG. 32) were conducted on cultures lacking CRISPR in the absence of phage.” left out

Sequence of SpCas9 (Q99ZW2 whole entry): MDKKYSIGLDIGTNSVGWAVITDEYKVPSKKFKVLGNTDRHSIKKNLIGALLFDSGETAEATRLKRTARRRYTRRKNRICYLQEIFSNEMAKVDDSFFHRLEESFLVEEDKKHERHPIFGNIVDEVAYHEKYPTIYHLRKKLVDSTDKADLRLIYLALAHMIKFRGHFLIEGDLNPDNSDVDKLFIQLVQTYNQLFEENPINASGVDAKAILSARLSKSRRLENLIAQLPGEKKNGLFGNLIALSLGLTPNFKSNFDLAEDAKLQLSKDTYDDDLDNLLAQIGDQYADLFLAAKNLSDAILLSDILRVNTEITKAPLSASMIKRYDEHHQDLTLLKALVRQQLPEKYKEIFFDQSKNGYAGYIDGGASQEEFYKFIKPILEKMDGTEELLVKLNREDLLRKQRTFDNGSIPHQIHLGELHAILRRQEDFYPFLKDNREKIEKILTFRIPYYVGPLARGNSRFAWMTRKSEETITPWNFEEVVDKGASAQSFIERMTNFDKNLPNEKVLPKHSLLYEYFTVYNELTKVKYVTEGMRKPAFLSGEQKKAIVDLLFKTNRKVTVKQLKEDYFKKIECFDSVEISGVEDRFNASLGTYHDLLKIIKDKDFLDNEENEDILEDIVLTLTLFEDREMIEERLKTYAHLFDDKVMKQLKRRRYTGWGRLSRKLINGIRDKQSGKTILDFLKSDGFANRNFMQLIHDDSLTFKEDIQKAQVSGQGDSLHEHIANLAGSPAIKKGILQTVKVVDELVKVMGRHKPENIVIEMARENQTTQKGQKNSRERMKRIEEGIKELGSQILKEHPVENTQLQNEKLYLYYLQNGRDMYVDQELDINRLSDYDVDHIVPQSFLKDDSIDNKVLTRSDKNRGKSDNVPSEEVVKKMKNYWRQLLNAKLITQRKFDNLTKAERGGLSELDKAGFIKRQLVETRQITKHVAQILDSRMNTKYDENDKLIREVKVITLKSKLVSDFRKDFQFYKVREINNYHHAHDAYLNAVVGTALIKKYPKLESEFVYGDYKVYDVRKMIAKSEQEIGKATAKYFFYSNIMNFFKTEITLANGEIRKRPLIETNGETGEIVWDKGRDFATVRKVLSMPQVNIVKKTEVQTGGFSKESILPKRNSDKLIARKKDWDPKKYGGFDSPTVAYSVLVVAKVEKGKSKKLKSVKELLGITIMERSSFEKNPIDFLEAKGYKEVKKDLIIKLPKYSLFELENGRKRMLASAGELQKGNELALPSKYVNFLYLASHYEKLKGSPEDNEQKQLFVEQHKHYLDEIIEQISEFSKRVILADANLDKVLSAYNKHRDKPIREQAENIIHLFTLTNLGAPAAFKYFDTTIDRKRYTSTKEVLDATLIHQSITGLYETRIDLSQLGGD

SMILES	inhibition of SpCas9-mediated NHEJ (SpCas9)	solubility at 24 h [1]	inhibition of HBG1 transcriptional activation (dCas9)	blockage of CRISPR-immunity: sensitization of immune bacterial cells to phage (S. aureus RN4220 strain)	inhibition of transcriptional activation (dCas9; 10 μM, HBG1 gene)	activity in phage assay compared with BRD5779 (S. aureus RN4220 strain)
COc1ccc(-c2ccc3c(c2)[C@H]2[C@H](CCN2Cc2ccncc2)[C@@H](CO)N3)cc1 [BRD5779, ((3aR,4S,9bR)-8-(4-Methoxyphenyl)-1-(pyridin-4-ylmethyl)-2,3,3a,4,5,9b-hexahydro-1H-pyrrolo[3,2-c]quinolin-4-yl)methanol]	Dose-dependent inhibition of SpCas9-mediated NHEJ; also recorded: active	~75 µM (≈ 30.1 µg/mL)	dose-dependent inhibition	able to sensitize the immune bacterial cells against target phage in a dose-dependent manner; also recorded: dose-dependent blockage of CRISPR-Cas9 based immunity		
OC[C@H]1Nc2ccc(-c3cccc(F)c3)cc2[C@H]2[C@@H]1CCN2Cc1ccncc1 [BRD7087, ((3aR,4S,9bR)-8-(3-Fluorophenyl)-1-(pyridin-4-ylmethyl)-2,3,3a,4,5,9b-hexahydro-1H-pyrrolo[3,2-c]quinolin-4-yl)methanol]	Dose-dependent inhibition of SpCas9-mediated NHEJ; also recorded: active	~75 µM (≈ 29.2 µg/mL)	dose-dependent inhibition	able to sensitize the immune bacterial cells against target phage in a dose-dependent manner; also recorded: dose-dependent blockage of CRISPR-Cas9 based immunity	> 60%	higher activity
